Laboratory results published in patent publication US9028845B2, “Chimeric immunomodulatory compounds and methods of using the same-IV” (Dynavax Technologies Corporation, priority 2001, dated 2015).

Tested on: human PBMCs
Assay: Human PBMC cytokine response assay (IFN-γ and IFN-α in cell-free medium by ELISA), with or without cPLGA;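 on IFN-α (pg/ml) mean: 20 µg/mL compound for 24 hours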;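 on IFN-γ (pg/ml) mean: 20 µg/mL compound for 24 hours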
Assay type: cell-based
Conditions: for IFN-α mean / IFN-γ mean: mean of donors; for immunomodulatory activity (IFN-γ / IFN-α secretion), in words: used alone (no cPLGA)
[1] = mean of donors 110, 112, 119, 120, Table 14
[2] = mean of donors 28185-28188, Table 15

Substance: 5′-TCGAACG-3′-HEG-5′-TCGAACG-3′-HEG-5′-TCGAACG-3′ [Compound C-50]
- IFN-α (Table 10, donor 28042): 36 pg/mL
- IFN-γ (Table 10, donor 28042): 1324 pg/mL
- IFN-α (Table 10, donor 28043): 137 pg/mL
- IFN-γ (Table 10, donor 28043): 1292 pg/mL
- IFN-α (Table 10, donor 28044): 193 pg/mL
- IFN-γ (Table 10, donor 28044): 509 pg/mL
- IFN-α (Table 10, donor 28045): 35 pg/mL
- IFN-γ (Table 10, donor 28045): 192 pg/mL
- IFN-α mean (Table 10): 100 pg/mL
- IFN-γ mean (Table 10): 829 pg/mL
- IFN-α (donor 110, Table 14): 716 pg/mL
- IFN-γ (donor 110, Table 14): 1096 pg/mL
- IFN-α (donor 112, Table 14): 84 pg/mL
- IFN-γ (donor 112, Table 14): 264 pg/mL
- IFN-α (donor 119, Table 14): 838 pg/mL
- IFN-γ (donor 119, Table 14): 52 pg/mL
- IFN-α (donor 120, Table 14): 636 pg/mL
- IFN-γ (donor 120, Table 14): 48 pg/mL
- IFN-α (pg/ml) mean [1]: 569 pg/mL
- IFN-γ (pg/ml) mean [1]: 365 pg/mL
- IFN-α induction, in words (used alone): generated more IFN-α than CICs containing a 5′-TCGT-3′
- immunomodulatory activity (IFN-γ / IFN-α secretion), in words: more active than other CG-containing CICs

Substance: 5′-TCGTCGA-3′-(HEG)6-5′-TCGTCGA-3′ (phosphodiester linkages) [Compound C-36]
- activity when formulated with cPLGA, in words: significantly more active when formulated with cPLGA
- immunomodulatory activity (IFN-γ / IFN-α secretion), in words: inactive as CICs alone

Substance: 5′-TCGT-3′-HEG-5′-TCGT-3′-HEG-5′-TCGT-3′-HEG-5′-TCGT-3′-HEG-5′-TCGT-3′ [Compound C-44]
- IFN-α (Table 10, donor 28042): 0 pg/mL
- IFN-γ (Table 10, donor 28042): 238 pg/mL
- IFN-α (Table 10, donor 28043): 12 pg/mL
- IFN-γ (Table 10, donor 28043): 359 pg/mL
- IFN-α (Table 10, donor 28044): 60 pg/mL
- IFN-γ (Table 10, donor 28044): 484 pg/mL
- IFN-α (Table 10, donor 28045): 1 pg/mL
- IFN-γ (Table 10, donor 28045): 51 pg/mL
- IFN-α mean (Table 10): 18 pg/mL
- IFN-γ mean (Table 10): 283 pg/mL
- activity when formulated with cPLGA, in words: induced considerable IFN-γ and IFN-α when formulated with cPLGA
- IFN-γ induction, in words (used alone): induce IFN-γ when used alone

Substance: Starburst Dendrimer ® -(5′-TGACTGTGAACGTTCGAGATGA-3′)x (X range = 3-16) (SEQ ID NO: 2) (See Ex. 24) [Compound C-102]
- IFN-a (donor 28185, Table 15): 1880 pg/mL
- IFN-g (donor 28185, Table 15): 158 pg/mL
- IFN-a (donor 28186, Table 15): 187 pg/mL
- IFN-g (donor 28186, Table 15): 43 pg/mL
- IFN-a (donor 28187, Table 15): 109 pg/mL
- IFN-g (donor 28187, Table 15): 101 pg/mL
- IFN-a (donor 28188, Table 15): 4 pg/mL
- IFN-g (donor 28188, Table 15): 6 pg/mL
- IFN-a (pg/ml) mean [2]: 545 pg/mL
- IFN-g (pg/ml) mean [2]: 77 pg/mL
- IFN-a (pg/ml) ×2 (mean ×2, Table 15): 1090 pg/mL
- IFN-g (pg/ml) ×4 (mean ×4, Table 15): 307 pg/mL
- IFN-α induction, in words (used alone): significantly more IFN-α activity than the P-6 sequence alone
